From patent US20150018403A1, “FLUORENE-AMIDE COMPOUNDS AND PHARMACEUTICAL USE THEREOF” (JAPAN TOBACCO INC., priority 2013, published 2015) come the findings set out here.

Data set [1] concerns the target T1, hERG current (hERG-transfected HEK293 cells) (Homo sapiens, UniProt Q12809).
T1 construct: host or cells: HEK293
The data set can be described thus: hERG whole cell patch clamp test. The data set is classed as cell-based. To be noted: whole cell patch clamp, hERG-transfected HEK293 cells. The protocol:
(§1) Using human ether-a-go-go related gene (hERG)-transfected HEK293 cells (Cytomyx Limited), an influence on hERG current was examined according to the whole cell patch clamp technique. The hERG-transfected HEK293 cells were passaged using a CO2 incubator (BNA-111, TABAI ESPEC CORP.) under the set conditions of 37° C., 5% CO2, saturated humidity. Culture containers used were Collagen Type I Coated 75 cm^2 flask (4123-010, AGC TECHNO GLASS CO., Ltd.) and Collagen Type I Coated 35 mm culture dish (4000-010, AGC TECHNO GLASS CO., Ltd.). The culture medium used was E-MEM (Eagle Minimum Essential Medium (Earle's Salts, Nikken biomedical laboratory) added with 10% FCS (Fetal bovine serum, BioWest, L.L.C.) and 1% MEM Non-Essential Amino Acids Solution (NEAA, Invitrogen Corporation). Geneticin for the selection of hERG gene expressing cells was added thereto to a concentration of 400 μg/mL. As the cells for the measurement, 3×10^4 hERG-transfected HEK293 cells were plated on a 35 mm culture dish 4 to 7 days before measurement of the hERG current. The culture dish produced for the measurement contained the above-mentioned culture medium without geneticin (Invitrogen Corporation).
(§2) The highest evaluation concentration of each compound was determined from the highest concentration at which precipitation was not found in the standard extracellular fluid (NaCl: 140 mmol/L, KCl: 2.5 mmol/L, MgCl2: 2 mmol/L, CaCl2: 2 mmol/L, HEPES: 10 mmol/L, glucose: 10 mmol/L (adjusted to pH 7.4 with Tris-base)). As the application method, each solution to be applied was ejected from a Y-tube having a tip diameter of about 0.25 mm, which was adjacent (about 2 mm) to the cells, and applied to the cells. The ejection rate was about 0.4 mL/min.
(§3) The experiment was performed at room temperature under a phase contrast microscope. The 35 mm culture dish plated with the cells was set on a measurement apparatus, and the standard extracellular fluid was continuously applied to the cells from the Y-tube. A glass electrode for the measurement was filled with an intracellular fluid (Potassium Gluconate: 130 mmol/L, KCl: 20 mmol/L, MgCl2: 1 mmol/L, ATP-Mg: 5 mmol/L, EGTA: 3.5 mmol/L, HEPES: 10 mmol/L (adjusted to pH 7.2 with Tris-base)). A conventional whole cell patch clamp method was applied to the cells, and the maintenance electric potential was set to −80 mV. Under a fixed electric potential, the whole cell current was amplified by an amplifier for patch clamp (AXOPATCH-200B, Axon Instruments, Inc.), and the data was loaded into a computer (IMC-P642400, Intermedical Co., Ltd.) using a data acquisition analysis software (pCLAMP 9.2, Axon Instruments, Inc.).
(§4) The measurement of the hERG current was performed in the following two steps. In both cases, the hERG current was initiated by giving a command potential (maintenance electric potential −80 mV, prepulse+20 mV, 1.5 sec, test-pulse −50 mV, 1.5 sec).
(§5) Step (1): The above-mentioned command potential was given at 0.1 Hz for 2 min.
(§6) Step (2): The above-mentioned command potential was subjected to P/3 subtraction of pCLAMP 9.2 to remove leak current. This was repeated three times and an average thereof was taken as hERG current.
(§7) Subsequent to step (1), Step (2) was performed (about 3 min), and the maximum tail current obtained by applying a test-pulse to the hERG current obtained by the method of step (2) was taken as hERG current value. Hereafter, the operations of (1) and (2) were alternately repeated until completion of the experiment and the hERG current value was measured.
(§8) Stable hERG current value was recorded three times (about 10 min), and the standard extracellular fluid was instantaneously exchanged with each application fluid. The hERG current value was measured three times (about 10 min) in the same manner during perfusion of the application fluid, and the current value obtained by the 3rd measurement was taken as hERG current value after perfusion of the application fluid. […]
For orientation: Block of hERG is tested as a sign of cardiac risk.

A further data set addresses T2, hERG (Homo sapiens, UniProt Q12809).
T2 construct: host or cells: HEK293
The data set can be described thus: hERG whole cell patch clamp test. It counts as cell-based. To be noted: human, HEK293 cells transfected with hERG, pH 7.4, read-out: hERG inhibition rate (%); for inhibition at 10 μmol/L: concentration 10 μmol/L. The protocol:
as §1, §2, §3, §4, §5, §6, §7, §8

Data set [2] in a line: Metabolic stability test in human liver microsome. To be noted: 37° C., 5 μM. It counts as in vitro ADME. Here is the method: Human liver microsome (manufactured by Xenotech, H0620, final concentration (after dilution), 0.2 mg protein/mL) was suspended in 100 mM potassium phosphate buffer (pH 7.4, containing β-nicotinamide adenine dinucleotide phosphate: 1.3 mM, D-glucose-6-phosphate: 3.3 mM, magnesium chloride: 3.3 mM, glucose-6-phosphate dehydrogenase: 0.45 U/mL), and further mixed with a test compound dissolved in MeCN/DMSO (95/5) (final concentration 5 μM). The mixture was incubated at 37° C. for 10 min and 60 min, acetonitrile containing formic acid (final concentration 0.1%) was added, and the mixture was centrifuged. The test compound (unmodified) in the supernatant was measured by high performance liquid chromatography/mass spectrometry (LC/MS) (manufactured by Waters, LC: Acquity UPLC, MS:SQ Detector or TQ Detector). The residual ratio (%) was calculated from the obtained measurement value.
On the technique in general: Liver microsomes are a subcellular fraction often used to study metabolism.

The IC50 is the concentration needed to halve the response being measured. A higher IC50 goes with weaker potency in that assay. Usually inhibition stands for the relative decrease from the control value, in per cent.

Structures are written as SMILES.

T2 sequence (Q12809 whole entry): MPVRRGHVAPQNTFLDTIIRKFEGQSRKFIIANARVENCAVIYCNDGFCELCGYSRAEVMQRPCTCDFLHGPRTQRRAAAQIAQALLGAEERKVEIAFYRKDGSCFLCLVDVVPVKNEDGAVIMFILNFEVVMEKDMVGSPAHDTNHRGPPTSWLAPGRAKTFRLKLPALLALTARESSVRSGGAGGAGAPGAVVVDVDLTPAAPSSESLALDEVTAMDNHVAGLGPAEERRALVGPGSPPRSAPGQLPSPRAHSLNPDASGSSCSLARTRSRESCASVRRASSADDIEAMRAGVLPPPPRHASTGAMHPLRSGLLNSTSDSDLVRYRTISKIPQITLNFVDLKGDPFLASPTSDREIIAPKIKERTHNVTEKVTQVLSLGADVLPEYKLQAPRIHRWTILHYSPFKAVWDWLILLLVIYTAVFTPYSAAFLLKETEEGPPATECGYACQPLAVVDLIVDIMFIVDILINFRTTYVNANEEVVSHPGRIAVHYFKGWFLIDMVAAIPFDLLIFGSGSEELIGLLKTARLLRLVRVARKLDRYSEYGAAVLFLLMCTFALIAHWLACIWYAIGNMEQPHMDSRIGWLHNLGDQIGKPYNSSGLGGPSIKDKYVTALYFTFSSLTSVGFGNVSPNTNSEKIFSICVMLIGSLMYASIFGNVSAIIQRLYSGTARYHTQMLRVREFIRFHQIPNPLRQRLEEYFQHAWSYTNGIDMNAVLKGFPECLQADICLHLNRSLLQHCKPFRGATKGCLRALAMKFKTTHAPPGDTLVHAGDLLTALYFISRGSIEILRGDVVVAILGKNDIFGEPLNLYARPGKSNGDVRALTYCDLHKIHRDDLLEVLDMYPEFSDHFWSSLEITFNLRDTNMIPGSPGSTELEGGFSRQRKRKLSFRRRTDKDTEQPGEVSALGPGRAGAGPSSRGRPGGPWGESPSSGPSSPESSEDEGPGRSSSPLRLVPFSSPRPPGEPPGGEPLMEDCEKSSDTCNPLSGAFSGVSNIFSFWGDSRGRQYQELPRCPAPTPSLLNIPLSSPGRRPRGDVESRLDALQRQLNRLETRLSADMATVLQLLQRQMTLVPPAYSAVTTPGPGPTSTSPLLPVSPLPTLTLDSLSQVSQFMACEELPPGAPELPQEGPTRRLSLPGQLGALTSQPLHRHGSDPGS
T1 sequence (Q12809 whole entry): as above

With `C[C@H](O)COc1cc(-c2cnn(C(C)(C)C(N)=O)c2)c2c(c1)[C@@](O)(C(F)(F)F)c1ccccc1-2` [compound (2), 2-(4-{(9R)-9-hydroxy-2-[(2S)-2-hydroxypropoxy]-9-(trifluoromethyl)-9H-fluoren-4-yl}-1H-pyrazol-1-yl)-2-methylpropanamide], the half-inhibitory concentration (IC50) in data set [1] amounted to 58.8 µM. For the same compound, at hERG, the inhibition at 10 μmol/L worked out at 7.5%. Moreover, at hERG (concentration 100 μmol/L), the inhibition at 100 μmol/L came out at 62.9%. Also, the “stability in liver microsome (residual ratio %)” value in data set [2] (10 min) came out at 98.9%; in data set [2] (60 min), 97.2%.

The compound `Cn1cc(-c2cc(OCC(C)(C)O)cc3c2-c2ccccc2[C@]3(O)C(F)(F)F)cn1` [compound (B), (9R)-2-(2-Hydroxy-2-methylpropoxy)-4-(1-methyl-1H-pyrazol-4-yl)-9-(trifluoromethyl)-9H-fluoren-9-ol, reference compound] gave an IC50 in data set [1] of 3.6 µM. The inhibition at 1 μmol/L on hERG (concentration 1 μmol/L) amounted to 17.4%. For the same compound, the inhibition at 10 μmol/L at hERG was determined as 72.9%. For the same compound, the “stability in liver microsome (residual ratio %)” value in data set [2] (10 min) turned out to be 98.0%; in data set [2] (60 min), 88.2%.
